Data on eight compounds can be found in paper PMC11836371, “Virtual fragment screening for DNA repair inhibitors in vast chemical space” (Nature Communications, 2025).

Values joined by “and” are separate entries in the source; they are usually repeats but may differ in a detail not shown here. Equal entries are not always repeated. Where two headings read alike, the source gives them in different places.

Series [1] deals with T1, human OGG1 enzyme (Homo sapiens, UniProt O15527). The experiment in a line: OGG1 glycosylase activity assay (enzyme inhibition, APE1-coupled fluorescence). The format is biochemical.
T1 sequence (O15527 whole entry): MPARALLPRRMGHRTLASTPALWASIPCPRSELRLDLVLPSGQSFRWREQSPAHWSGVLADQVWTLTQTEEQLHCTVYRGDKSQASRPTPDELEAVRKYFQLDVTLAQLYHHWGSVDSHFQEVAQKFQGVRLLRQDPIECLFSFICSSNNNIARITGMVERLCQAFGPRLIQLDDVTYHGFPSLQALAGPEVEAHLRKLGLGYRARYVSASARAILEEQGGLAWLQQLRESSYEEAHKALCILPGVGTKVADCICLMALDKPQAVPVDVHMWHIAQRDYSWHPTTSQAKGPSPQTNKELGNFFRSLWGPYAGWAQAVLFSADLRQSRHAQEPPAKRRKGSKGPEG
Protocol: “8” signifies 8-oxoA and “FAM” and “Dab” signify fluorescein and dabcyl (TriLink Biotech). Briefly, compounds dissolved in DMSO were dispensed using an Echo 550 (Labcyte), followed by transfer of enzyme and substrate solutions manually with a 16-channel pipette or with a Multidrop (Thermo Scientific). The plates were centrifuged, sealed and incubated at room temperature overnight (15 h) and read the following morning in an Hidex Sense plate reader (Hidex Oy) using a 485-nm filter with a bandwidth of 10 nm for excitation and a 535-nm filter with a bandwidth of 20 nm for emission.
In series [2] the target is T1, human OGG1 enzyme. The experiment in a line: Differential scanning fluorimetry (DSF) thermal shift assay. Format: binding. Also on record: ∆Tm (K): unit of the concentration uncertain. The method, then: The temperature was increased from 20 °C to 85 °C with 10 readings/degree. Tm values were calculated using an excel template and fitting to the Boltzmann equation in Prism v.6.07 (GraphPad Software).

The subject of series [3] is NF-κB activation in HEK293T pGF NF-κB cells. The series can be described thus: TNF-α induced NF-κB activation assay. Format: cell-based. The following applies: Homo sapiens, HEK-293T; NFκB activation assay; ± SD; read-out: pEC50 (converted). The method, then:
The inhibition of TNF-α induced NF-κB activation was measured in HEK293T cells transfected with the pGreenfire NF-κB plasmid. This is a plasmid that has NF-κB response elements (TRE) coupled to GFP and luciferase expression. When the NF-κB is activated by TNF-α, it binds to the TRE and induces GFP expression, and the fluorescence can be measured in a plate reader. The cells were authenticated with STR profiling, frozen down and these stocks were used in experiments. The HEK293T pGF NF-κB cells were kept in DMEM with 5% FBS and 1% P/S but, when seeded for the assay the medium was changed to DMEM FluoroBrite with 1% dialyzed FBS. All cell culture reagents were purchased from Thermo Fisher Scientific. Compounds were nano-dispensed (Echo acoustic dispenser) in 96-well, black/clear, assay plates (Corning #3904), duplicate plates, in 8-points dose-response curves, 1:2 dilutions, with DMSO compensation (0.3% DMSO). Cells were seeded at 30000 cells/well in medium containing 10 ng/mL of TNF-α (Sigma-Aldrich), except negative control wells which only contained cells in medium. Cells were cultured for 24 hours in a humidified incubator at 37 °C with 5% CO2 after which the GFP fluorescence was measured in a Sense plate reader (Hidex) with ex485/em535. The RFU data from the duplicate plates were combined to calculate % inhibition of NF-κB activation and IC50-values were calculated using XLfit (IDBS). In parallel with the NF-κB assay, a CellTiterGlo (Promega) cell viability assay was run to exclude compounds affecting cell viability. Compounds were nano-dispensed (Echo acoustic dispenser) in assay plates in 11-points dose-response curves, 1:3 dilutions, without DMSO compensation, with duplicates on the same plate. Cells were seeded at 7500 cells/well in 25 µL medium (DMEM FluoroBrite with 1% dialyzed FBS) containing 10 ng/mL TNF-α and cultured for 24 hours, with column 24 containing only culture medium. After equilibration to room temperature, the CellTiterGlo reagents were mixed and 25 µL/well were added to the cell plate. After 2 min mixing of the plate on an orbital shaker, the plate was incubated for 10 min at room temperature followed by luminescence reading in Sense. The cell viability was calculated compared to untreated control wells and the EC50 values were determined in XLfit (IDBS). […]

The subject of a further series is HCT116 cells. The series can be described thus: Cancer cell viability assay (resazurin), HCT116. The format is cell-based. The note with it: two independent experiments; for percentage cell viability: HCT116, 100 μM, 100 µM; for viability at 100 µM: Homo sapiens, HCT-116, HCT116, 100 μM, read-out: percentage cell viability. As for the experimental part: (§1) Three different cancer cell lines A2780 (ovarian cancer, ECACC 93112519), A549 (lung cancer, ATCC 60150896) and HCT116 (colon cancer, ATCC CCL-247), and one immortalized fibroblast cell line (BJhTERT) as control, were seeded in black/clear 384-well plates (Corning #3764), 50 µL/well, containing 11 concentrations, nano-dispensed, dose-response curves of the test compounds. A2780, HCT116, and HEK293T cell lines were authenticated with STR profiling, frozen down, and these stocks were used in experiments. The A2780 cells were cultured in RPMI 1640, the A549 and BJhTERT cells in DMEM, and the HCT116 cells in McCoys 5 A medium. All media were supplemented with 10% FBS and 1% P/S. All cell culture media, additives, and reagents were purchased from Thermo Fisher Scientific. The cell plates were incubated 72 hours in a humidified incubator at 37 °C with 5% CO2, after which resazurin (Sigma-Aldrich), 10 µL/well, was added to a final concentration of 10 µg/mL. The plates were incubated for 6 hours with resazurin followed by fluorescence readings in a Sense plate reader (Hidex), resorufin protocol (ex 544 nm/em 595 nm). The cell viability was calculated compared to untreated control wells and the EC50 values were determined in XLfit (IDBS).
(Alamar Blue is a resazurin reagent that responds to reducing activity.)

Another series deals with A2780 cells. The experiment in a line: Cancer cell viability assay (resazurin), A2780. Format: cell-based. The following applies: two independent experiments; for percentage cell viability: A2780, 100 μM, 100 µM; for viability at 100 µM: Homo sapiens, A2780, A2780, 100 μM, read-out: percentage cell viability. The method, then:
as §1

The test system of the next series is A549 cells. The experiment in a line: Cancer cell viability assay (resazurin), A549. Format: cell-based. The note with it: two independent experiments; for percentage cell viability: A549, 100 μM, 100 µM; for viability at 100 µM: Homo sapiens, A549, A549, 100 μM, read-out: percentage cell viability. The method, then: as §1
Series [4] in a line: Cell viability assay (resazurin), BJhTERT non-transformed control. Format: cell-based. The following applies: human, BJhTERT, 100 μM, two independent experiments; read-out: percentage cell viability. The method, then: (§2) A2780, HCT116, and HEK293T cell lines were authenticated with STR profiling, frozen down, and these stocks were used in experiments. […] All media were supplemented with 10% FBS and 1% P/S. All cell culture media, additives, and reagents were purchased from Thermo Fisher Scientific. The cell plates were incubated 72 hours in a humidified incubator at 37 °C with 5% CO2, after which resazurin (Sigma-Aldrich), 10 µL/well, was added to a final concentration of 10 µg/mL. […] The cell viability was calculated compared to untreated control wells and the EC50 values were determined in XLfit (IDBS).

The subject of the next series is BJhTERT cells. The series is described as above. The following applies: BJhTERT, 100 μM, two independent experiments. The format is cell-based. As for the experimental part: as §2
Setting [5] is: 99 (unit uncertain) as printed in sheet footnote.
Setting [6] is: Table S5, ± SD, read-out: pIC50 (converted).

Consider `Cc1cc(C)n(-c2ccc(CC(=O)Nc3noc4c3CCCC4)cc2)n1` [compound 7], for which the “OGG1 inhibition, dose-response (Figure2C)” value was 16.25 and 10.96 at human OGG1 enzyme [1] (Concentration (M) 9.67e-7); 24.11 and 22.26 on human OGG1 enzyme [1] (Concentration (M) 1.93e-6); 37.42 and 38.76 on human OGG1 enzyme [1] (Concentration (M) 3.87e-6); 52.82 and 50.97 on human OGG1 enzyme [1] (Concentration (M) 7.73e-6); 74.43 and 67.46 on human OGG1 enzyme [1] (Concentration (M) 1.55e-5); 80.92 and 75.35 on human OGG1 enzyme [1] (Concentration (M) 3.09e-5). Further, the “OGG1 inhibition, dose-response (Figure2C)” value at human OGG1 enzyme [1] (Concentration (M) 6.19e-5) was 85.03 and 86.63; at human OGG1 enzyme [1] (Concentration (M) 0.000124) it was 92.57 and 92.28; on human OGG1 enzyme [1] (Concentration (M) 0.000248), 92.32 and 95.26; at human OGG1 enzyme [1] (Concentration (M) 0.000495), 96.86 and 92.16. In addition, the IC50 on human OGG1 enzyme [1] (read-out: IC50) was 6.6 µM. Moreover, the “∆Tm (K)” value at human OGG1 enzyme [2] (99 μM) is 5.5 K and 5.5 ± 1.2 K; on human OGG1 enzyme [2] (setting [5]) it was 5.5 ± 1.2 K. At human OGG1 enzyme [2] (concentration not given), the ΔTm was determined as 5.5 K. In addition, the EC50 in series [3] is 35.5 µM.

As for `Cc1cc(C)n(-c2cc(F)c(CC(=O)Nc3noc4c3CCCC4)c(F)c2)n1` [compound 8], the percentage cell viability was found to be 43.25% in the series on HCT116 cells, 19.16% with A2780 cells, 33.07% in the series with A549 cells and 42.84% with BJhTERT cells. The viability at 100 µM in the series with HCT116 cells was determined as 35.4%; in the series with A2780 cells it was 17.4%; in the series on A549 cells, 32.8%. Moreover, the IC50 at human OGG1 enzyme [1] (Table 1, mean ± SD, at least three independent replicates, read-out: pIC50 (converted)) is 6.46 µM. Moreover, the viability at 72 h, 100 µM in series [4] was found to be 40.1%. For the same compound, the “∆Tm (K)” value at human OGG1 enzyme [2] (99 μM) and on human OGG1 enzyme [2] (setting [5]) was 5.4 ± 0.5 K in each case. In addition, in series [3], the EC50 is 11.2 µM.

Turning to `O=C(Cc1ccc(-n2ncc3ccncc32)cc1)Nc1noc2c1CCCC2` [compound 13], at human OGG1 enzyme [1] (setting [6]), the IC50 is 47.9 µM. Also, in series [3], the EC50 was 14.1 µM.

`Cc1nn(-c2ccc(CC(=O)Nc3noc4c3CCCC4)cc2)c2ccc(N)cc12` [compound 14]: the percentage cell viability in the series on HCT116 cells was 30.89%; with A2780 cells, 5.95%; in the series on A549 cells, 28.85%; with BJhTERT cells, 41.42%. In addition, the viability at 100 µM worked out at 26% in the series on HCT116 cells, 3.81% with A2780 cells and 28.3% in the series on A549 cells. The IC50 at human OGG1 enzyme [1] (setting [6]) is 9.77 µM. For the same compound, the viability at 72 h, 100 µM in series [4] was 38.5%. The EC50 in series [3] was 6.61 µM.

`O=C(Cc1ccc(-n2ncc3c2CNCC3)cc1)Nc1noc2c1CCCC2` [compound 15]: the EC50 in series [3] was 13.2 µM.

For the compound `O=C(Cc1ccc(-n2ncc3c2CCNC3)cc1)Nc1noc2c1CCCC2` [compound 16], the IC50 on human OGG1 enzyme [1] (setting [6]) is more than 100 µM. In series [3], the EC50 was more than 31.6 µM.

As to `Cc1nc(-c2ccc(CC(=O)Nc3noc4c3CCCC4)c(C)c2)c(C)[nH]1` [compound 19], the percentage cell viability in the series on HCT116 cells is 6.65%; in the series on A2780 cells, 2.96%; in the series on BJhTERT cells, 24.77%. Besides, the viability at 100 µM in the series with HCT116 cells came to 5.31%; in the series with A2780 cells, 2.43%. In addition, the IC50 at human OGG1 enzyme [1] (setting [6]) is 0.813 µM. For the same compound, the viability at 72 h, 100 µM in series [4] is 15.2%. Moreover, the “∆Tm (K)” value on human OGG1 enzyme [2] (99 μM) is listed as 7.4 ± 0.2 K. The EC50 in series [3] was 10.5 µM.

On to `Cc1nc(-c2ccc(CC(=O)Nc3noc4c3CCCC4)nc2)c(C)[nH]1` [compound 22], for which the percentage cell viability was 64.01% and 103.96% in the series on HCT116 cells; 65.16% with A2780 cells; 96.69% with A549 cells; 76.15% and 96.63% in the series on BJhTERT cells. In addition, the viability at 100 µM in the series with A2780 cells is 50.2%; in the series with A549 cells, 79.4%. Besides, the IC50 on human OGG1 enzyme [1] (setting [6]) is 1.95 µM. Besides, the “∆Tm (K)” value on human OGG1 enzyme [2] (99 μM) came out at 6.3 K. Also, the EC50 in series [3] is 28.2 µM.

As usually defined, the viability is a per cent measure of how many cells are alive, often set against a control.
